Read-outs that look alike come from different tables or passages of the source. *1 amine or outer side, *2 acyl side, *3 side chain or, on linkers, in order; H or OH if unused. Where a SMILES comes first, the peptide text is derived from it. Bridges are numbered along the chain shown (N, C = ends). [ ]: non-standard residue; d: D form. The star is where a group is joined. hPhe(3,5-F2-4-CF3) = N[C@@H](CCc1cc(F)c(C(F)(F)F)c(F)c1)C(=O)O; hPhe(3-Cl-4-CF3) = N[C@@H](CCc1ccc(C(F)(F)F)c(Cl)c1)C(=O)O; NPrPhe(4-CF3) = CCCN[C@@H](Cc1ccc(C(F)(F)F)cc1)C(=O)O; NMeAbu(4,4,4-F3) = CN[C@@H](CC(F)(F)F)C(=O)O; NMeGly(cPent) = CN[C@H](C(=O)O)C1CCCC1; Pro(4,4-F2) = O=C(O)[C@@H]1CC(F)(F)CN1; αMeCha = C[C@](N)(CC1CCCCC1)C(=O)O; NMeD = CN[C@@H](CC(=O)O)C(=O)O; NMeL = CN[C@@H](CC(C)C)C(=O)O; X12 = N#CCN(CC(=O)[*:2])[*:1]; Morpholide = C1CN(*)CCO1; NMeA = CN[C@@H](C)C(=O)O; Ac5c = NC1(C(=O)O)CCCC1; Aze = O=C(O)[C@@H]1CCN1; NPrGly = CCCNCC(=O)O; Sar = CNCC(=O)O
How the values were obtained:
[1] = target: GDP-bound NRAS wild-type protein (Homo sapiens, UniProt P01111); assay: Binding to NRAS by surface plasmon resonance (SPR), Single Cycle Kinetics; conditions: for NRAS/KRAS (ratio of KD value for NRAS to KD value for KRAS) / NRAS/KRAS (ratio of KD value with respect to NRAS to KD value with respect to KRAS): SPR, GDP-bound NRAS wild-type protein vs GDP-bound KRAS wild-type protein
GDP-bound NRAS wild-type protein, sequence (P01111 whole entry): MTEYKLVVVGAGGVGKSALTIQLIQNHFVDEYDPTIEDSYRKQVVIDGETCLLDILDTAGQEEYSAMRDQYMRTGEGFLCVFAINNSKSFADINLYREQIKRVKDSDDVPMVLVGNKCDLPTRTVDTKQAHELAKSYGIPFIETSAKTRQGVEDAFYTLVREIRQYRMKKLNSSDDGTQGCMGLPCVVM

[2] = target: GDP-bound KRAS wild-type protein (Homo sapiens, UniProt P01116); assay: Binding to KRAS by surface plasmon resonance (SPR), Single Cycle Kinetics; conditions: GDP-bound KRAS wild-type protein, read-out: KRAS KD
GDP-bound KRAS wild-type protein, sequence (P01116 whole entry): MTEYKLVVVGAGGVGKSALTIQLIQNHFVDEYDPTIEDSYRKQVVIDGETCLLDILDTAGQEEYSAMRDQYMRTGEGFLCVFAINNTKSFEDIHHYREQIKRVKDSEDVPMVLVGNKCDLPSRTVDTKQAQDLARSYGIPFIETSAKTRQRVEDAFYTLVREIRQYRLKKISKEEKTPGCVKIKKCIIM

[3] = target: GDP-bound HRAS wild-type protein (Homo sapiens, UniProt P01112); assay: Binding to HRAS by surface plasmon resonance (SPR), Single Cycle Kinetics; conditions: for HRAS/KRAS (ratio of KD value for HRAS to KD value for KRAS) / HRAS/KRAS (ratio of KD value with respect to HRAS to KD value with respect to KRAS): SPR, GDP-bound HRAS wild-type protein vs GDP-bound KRAS wild-type protein
GDP-bound HRAS wild-type protein, sequence (P01112 whole entry): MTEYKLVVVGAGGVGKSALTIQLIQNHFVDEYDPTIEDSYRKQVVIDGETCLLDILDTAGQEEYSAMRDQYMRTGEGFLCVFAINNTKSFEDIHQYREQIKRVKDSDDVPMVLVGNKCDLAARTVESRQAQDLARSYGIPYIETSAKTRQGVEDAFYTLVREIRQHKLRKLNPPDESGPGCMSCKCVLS

[4] = SPR Single Cycle Kinetics, 1:1 binding model
[5] = SPR, Single Cycle Kinetics, 1:1 binding model

Structure (SMILES)	NRAS/KRAS (ratio of KD value for NRAS to KD value for KRAS) [1]	Kd [2, 4]	HRAS/KRAS (ratio of KD value for HRAS to KD value for KRAS) [3]	also measured
CCCN1C(=O)[C@@H]2CCN2C(=O)[C@H](C)N(C)C(=O)[C@H]([C@@H](C)CC)NC(=O)[C@H](CC(F)(F)F)N(C)C(=O)C[C@@H](C(=O)N2CCOCC2)N(C)C(=O)[C@H](C2CCCC2)N(C)C(=O)C2(CCCC2)NC(=O)[C@@H]2CC(F)(F)CN2C(=O)[C@H](CCc2ccc(C(F)(F)F)c(Cl)c2)NC(=O)CN(C)C(=O)[C@@H]1Cc1ccc(C(F)(F)F)cc1 [PP0203] ([NMeAbu(4,4,4-F3)]I[NMeA][Aze][NPrPhe(4-CF3)][Sar][hPhe(3-Cl-4-CF3)][Pro(4,4-F2)][Ac5c][NMeGly(cPent)][NMeD]-Morpholide; lactam N-11)	C (A compound having a KD ratio of 0.1 or more and less than 3 is denoted as C)	0.094 nM	C (A compound having a KD ratio of 0.1 or more and less than 3 is denoted as C)	
CCCN1C(=O)[C@@H]2CCN2C(=O)CN(CC#N)C(=O)[C@H]([C@@H](C)CC)NC(=O)[C@H](CC(C)C)N(C)C(=O)C[C@@H](C(=O)N2CCOCC2)N(C)C(=O)[C@H](C2CCCC2)N(C)C(=O)C2(CCCC2)NC(=O)[C@@H]2CCCN2C(=O)[C@H](CCc2ccc(C(F)(F)F)c(Cl)c2)NC(=O)CN(C)C(=O)[C@@H]1Cc1ccc(C(F)(F)F)cc1 [PP0275] ([NMeL]I[X12][Aze][NPrPhe(4-CF3)][Sar][hPhe(3-Cl-4-CF3)]P[Ac5c][NMeGly(cPent)][NMeD]-Morpholide; lactam N-11)	C (A compound having a KD ratio of 0.1 or more and less than 3 is denoted as C)	0.3 nM	C (A compound having a KD ratio of 0.1 or more and less than 3 is denoted as C)	
CCCN1C(=O)[C@@H]2CCN2C(=O)CN(C)C(=O)[C@H]([C@@H](C)CC)NC(=O)[C@H](CC(C)C)N(C)C(=O)C[C@@H](C(=O)N2CCOCC2)N(C)C(=O)[C@H](C2CCCC2)N(C)C(=O)[C@](C)(CC2CCCCC2)NC(=O)[C@@H]2CCCN2C(=O)[C@H](CCc2cc(F)c(C(F)(F)F)c(F)c2)NC(=O)CN(C)C(=O)[C@@H]1Cc1ccc(C(F)(F)F)cc1 [PP0796] ([NMeL]I[Sar][Aze][NPrPhe(4-CF3)][Sar][hPhe(3,5-F2-4-CF3)]P[αMeCha][NMeGly(cPent)][NMeD]-Morpholide; lactam N-11)		7.5 nM		NRAS/KRAS (ratio of KD value with respect to NRAS to KD value with respect to KRAS) [1]: C (A compound having a KD ratio of 0.1 or more and less than 3 is denoted as C); HRAS/KRAS (ratio of KD value with respect to HRAS to KD value with respect to KRAS) [3]: B (a compound having 3 or more and less than 10 is denoted as B)
CCC[C@H]1C(=O)N[C@@H]([C@@H](C)CC)C(=O)N(C)CC(=O)N(C)[C@H]2C/C=C\CCN(C2=O)[C@@H](Cc2ccc(C(F)(F)F)cc2)C(=O)N(C)CC(=O)N[C@@H](CCc2cc(F)c(C(F)(F)F)c(F)c2)C(=O)N2C[C@H](OCC)C[C@H]2C(=O)NC2(CCC2)C(=O)N(C)[C@@H](C2CCCC2)C(=O)N(C)[C@H](C(=O)N(C)C)CC(=O)N1C [PP1110, (2S,8S,12R,14S,20S,23S,27S,30S,36S,38Z)-20-cyclopentyl-8-[2-[3,5-difluoro-4-(trifluoromethyl)phenyl]ethyl]-12-ethoxy-N,N,4,19,22,26,32,35-octamethyl-30-[(1S)-1-methylpropyl]-3,6,9,15,18,21,25,28,31,34,42-undecaoxo-27-propyl-2-[[4-(trifluoromethyl)phenyl]methyl]spiro[1,4,7,10,16,19,22,26,29,32,35-undecazatricyclo[34.5.1.0^10,14]dotetracont-38-ene-17,1′-cyclobutane]-23-carboxamide]	A (a compound having 10 or more and less than 20 is denoted as A)		B (a compound having 3 or more and less than 10 is denoted as B)	Kd ([2]; SPR, Single Cycle Kinetics): 0.056 nM
CCO[C@@H]1C[C@H]2C(=O)NC3(CCC3)C(=O)N(C)[C@@H](C3CCCC3)C(=O)N(C)[C@H](C(=O)N(C)C)CC(=O)N(C)[C@@H](CC(C)C)C(=O)N[C@@H]([C@@H](C)CC)C(=O)N(C)CC(=O)N(C)[C@H]3C/C=C\CCN(C3=O)[C@@H](Cc3ccc(F)cc3C)C(=O)N(C)CC(=O)N[C@@H](CCc3cc(F)c(C(F)(F)F)c(F)c3)C(=O)N2C1 [PP1532]				NRAS/KRAS (ratio of KD value for NRAS to KD value for KRAS) ([1]; KD ratio class): A (a compound having 10 or more and less than 20 is denoted as A); Kd [2, 5]: 0.19 nM; HRAS/KRAS (ratio of KD value for HRAS to KD value for KRAS) ([3]; KD ratio class): B (a compound having 3 or more and less than 10 is denoted as B)
CCCO[C@H]1CCN2C(=O)[C@H](CCc3cc(F)c(C(F)(F)F)c(F)c3)NC(=O)CN(C)C(=O)[C@H](Cc3ccc(C(F)(F)F)cc3)N3CCCCC[C@@H](C3=O)N(C)C(=O)CN(C)C(=O)[C@H]([C@@H](C)CC)NC(=O)[C@H](CC(C)C)N(C)C(=O)C[C@@H](C(=O)N3CCOCC3)N(C)C(=O)[C@H](C3CCCC3)N(C)C(=O)C3(CCC3)NC(=O)[C@H]12 [PP1069]	A (a compound having 10 or more and less than 20 is denoted as A)		B (a compound having 3 or more and less than 10 is denoted as B)	Kd ([2]; SPR, Single Cycle Kinetics): 2.5 nM
CCO[C@@H]1C[C@H]2C(=O)NC3(CCCC3)C(=O)N(C)[C@@H](C3CCCC3)C(=O)N(C)[C@H](C(=O)N3CCOCC3)CC(=O)N(C)[C@@H](CC)C(=O)N[C@@H]([C@@H](C)CC)C(=O)N(C)CC(=O)N(C)[C@H]3C[C@@H](C)CCN(C3=O)[C@@H](Cc3ccc(C(F)(F)F)cc3)C(=O)N(C)CC(=O)N[C@@H](CCc3cc(F)c(C(F)(F)F)c(F)c3)C(=O)N2C1 [PP1029]	C (A compound having a KD ratio of 0.1 or more and less than 3 is denoted as C)		B (a compound having 3 or more and less than 10 is denoted as B)	Kd ([2]; SPR, Single Cycle Kinetics): 0.078 nM
CCO[C@@H]1C[C@H]2C(=O)NC3(CCC3)C(=O)N(C)[C@@H](C(CC)CC)C(=O)N(C)[C@H](C)CC(=O)N(C)[C@@H](CC3CCCC3)C(=O)N[C@@H]([C@@H](C)CC)C(=O)N(C)CC(=O)N(C)[C@H]3C/C=C\CCN(C3=O)[C@@H](Cc3ccc(F)cc3C)C(=O)N(C)CC(=O)N[C@@H](CCc3cc(F)c(C(F)(F)F)c(F)c3)C(=O)N2C1 [PP1522]				NRAS/KRAS (ratio of KD value for NRAS to KD value for KRAS) ([1]; KD ratio class): A (a compound having 10 or more and less than 20 is denoted as A); Kd [2, 5]: 8.8 nM; HRAS/KRAS (ratio of KD value for HRAS to KD value for KRAS) ([3]; KD ratio class): A (a compound having 10 or more and less than 20 is denoted as A)
CCO[C@@H]1C[C@H]2C(=O)NC3(CCC3)C(=O)N(C)[C@@H](C3CCCC3)C(=O)N(C)[C@H](C(=O)N3CCOCC3)CC(=O)N(C)[C@@H](CCOC)C(=O)N[C@@H]([C@@H](C)CC)C(=O)N(C)CC(=O)N(C)[C@H]3CCCCCN(C3=O)[C@@H](Cc3ccc(C(F)(F)F)cc3)C(=O)N(C)CC(=O)N[C@@H](CCc3cc(F)c(C(F)(F)F)c(F)c3)C(=O)N2C1 [PP0690]		0.46 nM		NRAS/KRAS (ratio of KD value with respect to NRAS to KD value with respect to KRAS) [1]: B (a compound having 3 or more and less than 10 is denoted as B); HRAS/KRAS (ratio of KD value with respect to HRAS to KD value with respect to KRAS) [3]: B (a compound having 3 or more and less than 10 is denoted as B)
CCO[C@@H]1C[C@H]2C(=O)NC3(CC(C)(C)C3)C(=O)N(C)[C@@H](C(CC)CC)C(=O)N(C)[C@H](C(=O)N(C)C)CC(=O)N(C)[C@H]3CCC/C=C/c4ccc(cc4)C[C@@H](C(=O)N(C)CC(=O)N[C@@H](CCc4ccc(Cl)c(Cl)c4)C(=O)N2C1)N1CC/C=C\C[C@@H](C1=O)N(C)C(=O)CN(C)C(=O)[C@H]([C@@H](C)CC)NC3=O [PP2580]		0.2 nM		NRAS/KRAS (ratio of KD value with respect to GDP-bound NRAS wild-type protein to KD value with respect to KRAS) ([1]; SPR KD ratio NRAS/KRAS, class symbols): AA (a compound having 20 or more is denoted as AA); HRAS/KRAS (ratio of KD value with respect to GDP-bound HRAS wild-type protein to KD value with respect to KRAS) ([3]; SPR KD ratio HRAS/KRAS, class symbols): A (a compound having 10 or more and less than 20 is denoted as A)
CCCN1C(=O)[C@@H]2CCN2C(=O)CN(C)C(=O)[C@H]([C@@H](C)CC)NC(=O)[C@H](CC(C)C)N(C)C(=O)C[C@@H](C(=O)N2CCOCC2)N(C)C(=O)[C@H](C2CCCC2)N(C)C(=O)C2(CCCC2)NC(=O)[C@@H]2CCCN2C(=O)[C@H](CCc2cc(F)c(C(F)(F)F)c(F)c2)NC(=O)CN(C)C(=O)[C@@H]1Cc1ccc(C(F)(F)F)cc1 [PP0789] ([NMeL]I[Sar][Aze][NPrPhe(4-CF3)][Sar][hPhe(3,5-F2-4-CF3)]P[Ac5c][NMeGly(cPent)][NMeD]-Morpholide; lactam N-11)		0.12 nM		NRAS/KRAS (ratio of KD value with respect to NRAS to KD value with respect to KRAS) [1]: C (A compound having a KD ratio of 0.1 or more and less than 3 is denoted as C); HRAS/KRAS (ratio of KD value with respect to HRAS to KD value with respect to KRAS) [3]: B (a compound having 3 or more and less than 10 is denoted as B)
CCCN1CC(=O)N2CC[C@H]2C(=O)N(CCC)[C@@H](Cc2ccc(C(F)(F)F)cc2)C(=O)N(C)CC(=O)N[C@@H](CCc2ccc(C(F)(F)F)c(Cl)c2)C(=O)N2CCC[C@H]2C(=O)NC2(CCCC2)C(=O)N(C)[C@@H](C2CCCC2)C(=O)N(C)[C@H](C(=O)N2CCOCC2)CC(=O)N(C)[C@@H](CC(C)C)C(=O)N[C@@H]([C@@H](C)CC)C1=O [PP0274] ([NMeL]I[NPrGly][Aze][NPrPhe(4-CF3)][Sar][hPhe(3-Cl-4-CF3)]P[Ac5c][NMeGly(cPent)][NMeD]-Morpholide; lactam N-11)	C (A compound having a KD ratio of 0.1 or more and less than 3 is denoted as C)	0.47 nM	B (a compound having 3 or more and less than 10 is denoted as B)	

From patent US20240158446A1, “CYCLIC COMPOUND HAVING SELECTIVE INHIBITORY ACTION ON KRAS OVER HRAS AND NRAS” (CHUGAI SEIYAKU KABUSHIKI KAISHA, priority 2021, published 2024)
